Data as given in US20120183619A1, “TRICLOSAN DERIVATIVES AND NANOPARTICLES COMPRISING SAME” (BAR ILAN UNIVERSITY, priority 2011, published 2012).
≈ marks a conversion by molar mass, not a printed value.

Legend:
[1] = tested on: Escherichia Coli (E. coli) (Gram-negative); assay: Killing curves / antimicrobial activity on E. coli; format: cell-based
Experimental: (§1) In order to investigate the antimicrobial activity of the nanoparticles, a series of biological experiments were designed and carried out on two common bacterial pathogens, Escherichia Coli (E. coli) (Gram-negative) and Staphylococcus Aureus (S. aureus) (Gram-positive). Killing curves were determined in triplicate using starting inocula of 10^6 CFU mL^−1. Fresh, overnight growths of bacteria in TSB or TSB-Glu were diluted as necessary to produce the desired starting inocula in 10 mL of medium. T-SNPs and triclosan were tested in concentration ranges from 0 to 50 μg mL^−1 and 0 to 1 μg mL^−1, respectively. Unloaded SNPs were added at the highest tested concentration (50 μg mL^−1). TTESPC was previously dissolved in dimethyl sulfoxide (DMSO) and added to the media at a concentration of 50 μg mL^−1. Samples (100 μL) were removed from each well every 2 h and diluted appropriately in saline. Colony-forming units were determined by spotting 5 μL samples in triplicate on Luria-Bertani agar plates after 24 h incubation at 37° C. To confirm that the antimicrobial properties of the T-SNPs were mediated by the sole release of triclosan, the triclosan-resistant strain of E. coli, RJH108, was exposed to the highest concentration of T-SNPs tested (50 μg mL^−1). The viability was determined by using the same experimental protocol as described above.
(§2) Despite the similar MICs, a difference in the sensitivity of these strains to the T-SNPs treatment was observed. […] Then, the nanoparticles were centrifuged, filtered and the supernatant was incubated separately with E. coli and S. aureus and their growth was monitored. […]
(§3) The MIC of free triclosan that affected the growth of the two types of bacteria was measured (FIGS. 11A-B). […] As calculated from the elemental analysis, the triclosan constituted only […] of the nanoparticles, meaning that the highest concentration of nanoparticles taken for the experiments, 50 μg mL^−1, encompassed only 0.041 μg mL^1 of covalently bound triclosan. […]

[2] = cited from earlier work
[3] = tested on: Staphylococcus Aureus (S. aureus) (Gram-positive); assay: Killing curves / antimicrobial activity on S. aureus; format: cell-based
Experimental: as §1, §2, §3

| Compound | effect on bacterial growth at equal triclosan concentration ([1]; E. coli, 0.041 μg mL^1 triclosan (50 μg mL^−1 nanoparticles)) | MBC ([1]; Escherichia coli, read-out: minimal bactericidal concentration (MIC)) [µg/mL] | chemical stability (time) ([2]; at up to 200° C.) | solubility in aqueous solution ([2]; unless the pH is alkaline) | effect on bacterial growth at equal triclosan concentration ([3]; S. aureus, 0.041 μg mL^1 triclosan (50 μg mL^−1 nanoparticles)) | MBC ([3]; Staphylococcus aureus, read-out: minimal bactericidal concentration (MIC)) [µg/mL] | antibacterial activity (control) ([1]; E. coli, 50 μg mL^−1, dissolved in DMSO) | antibacterial activity (control) ([3]; S. aureus, 50 μg mL^−1, dissolved in DMSO) |
| --- | --- | --- | --- | --- | --- | --- | --- | --- |
| Oc1cc(Cl)ccc1Oc1ccc(Cl)cc1Cl [triclosan, 5-chloro-2-(2,4-dichlorophenoxy)phenol] | only began to impede the bacterial growth | 0.1 (≈ 0.345 µM) | up to 2 h | fairly insoluble | only began to impede the bacterial growth | 0.1 (≈ 0.345 µM) |  |  |
| CCO[Si](CCCNC(=O)Oc1cc(Cl)ccc1Oc1ccc(Cl)cc1Cl)(OCC)OCC [TTESPC, 5-chloro-2-(2,4-dichlorophenoxy)phenyl (3-(triethoxysilyl)propyl)carbamate] |  |  |  |  |  |  | no antibacterial activity was observed | no antibacterial activity was observed |
